In EP1323432A1, “Complexes of cyclodextrins with potassium ion homeostasis regulators” (priority 2001, dated 2003):

Columns and labels:
animal models = settings: doses of 1.5-5 mg/day, noncomplexed form; cited from earlier work
venous plasma K^+ [1] = assay: Venous plasma K^+ levels before and after treadmill exercise; assay type: in vivo, Wistar Kioto male rats; settings: for K^+ values 30 minutes after the end of the administration: 0.4 mg/kg/day (complex 2 3 mg/kg/day), 6 mg/kg/day (complex 3 50 mg/kg/day); for levels of K^+ of the animals that did not respond to treatment: up to 100 minutes after the end of the effort
Procedure: (§1) Wistar Kioto male rats weighing 350 g were divided into nine groups of eight animals each (numbered 1 to 8 for each test group) and were treated with amounts of complex 1 equal to 20 µg/kg/day or 40 µg/kg/day of noncomplexed active ingredient, of complex 2 equal to 0.4 mg/kg/day of noncomplexed active ingredient and of complex 3 equal to 6 mg/kg/day of noncomplexed active ingredient, orally with an endogastric tube for 30 days, during which the animals were exercised and tested. The tested doses were the minimum ones required to restore blood K^+ levels after exercise. • Placebo group treated with physiological solution enriched with hydroxypropyl-β-cyclodextrin; • Group treated with 20 µg/kg/day of 6-[1-piperidinyl]pyrimidine-2,4-diamine-3-oxide; • Group treated with […]/day of 6-[1-piperidinyl]pyrimidine-2,4-diamine-3-oxide; • Group treated with 180 µg/kg/day of complex 1; • Group treated with 360 µg/kg/day of complex 1; • Group treated with 0.4 mg/kg/day of [±]-N-cyano-N-4-pyridinyl-N-[1,2,2-trimethylpropyl]-guanidine; • Group treated with 3 mg/kg/day of complex 2; • Group treated with 6 mg/kg/day of N-[5-sulfamoyl-1,3,4-thiadiazol-2-yl]acetamide; • Group treated with 50 mg/kg/day of complex 3.
(§2) Levels of venous plasma K^+ taken from the femoral vein before and after exercise were also measured once a week per rat in animals anesthetized with chloral hydrate at a dose of 0.5 g/kg.

venous plasma K^+ [2] = assay: as above; assay type: in vivo, Wistar Kioto male rats; settings: 5 animals per group; up to 100 minutes after the end of the effort; complex 1 180 µg/kg/day, noncomplexed 20 µg/kg/day
[3] = rat, in vivo
[4] = Undesirable effects: hypotension (pressure measured with flow meter); parameters: species or system rats; settings: rat, in vivo
Procedure: Pressure measurements were made by means of a T206 dual-channel flow meter by Transonic System Inc (Ithaca, NY, USA). In the control animals not subjected to stress or pharmacological treatments, pressure was 91±7 mm Hg (N=56 rats). The pressure values of the animals in our test groups prior to the beginning of pharmacological treatment were between 85 mm Hg and 105 mm Hg. The pressures were measured in the morning, at rest, prior to administration. […] The observed variations remained constant to the end of the treatment. […] The pressure values used to plot the chart refer to the values from day 21 to day 30 of treatment (Chart 4). [formula]

Wistar Kioto male rats = assay: Treadmill exercise: average duration of effort and recovery times after effort; assay type: in vivo; settings: for average duration of the effort on the treadmill: after day 14 of treatment, oral by endogastric tube for 30 days; for average duration of the effort on the treadmill / Average recovery times after effort: versus placebo; for effort lasting (duration of the repeated effort on a treadmill) / rats able to sustain the effort on a treadmill already 30 minutes after suspending their exercise / time after which the remaining rats were able to repeat the effort: day 30; for effort lasting (duration of the repeated effort on a treadmill): effort repeated 30 minutes after end of exercise; for effort lasting (duration of the repeated effort on a treadmill) / time after which the remaining rats were able to repeat the effort: same doses as E4; for rats able to sustain the effort on a treadmill already 30 minutes after suspending their exercise: oral, complex 1 360 µg/kg/day, 0.4 mg/kg/day (complex 2 3 mg/kg/day), 6 mg/kg/day (complex 3 50 mg/kg/day); for time after which the remaining rats were able to repeat the effort: rats not able to repeat at 30 minutes; for Average recovery times after effort: day 30 of treatment
Procedure: as §1, §2
Each test group was subjected to daily trials at an initial speed of 15 m/min. In the second week, the speed was increased to 25 m/min, in the third week it was raised to 35 m/min, and in the fourth week it was increased to 45 m/min. Administration was performed in the morning.
The treadmill was equipped with a sensor which was sensitive to the weight of the rat, set to a generated weight force of 60 g/30 sec, and inserted in the rear wall of the time measurement chamber.

[5] = system: patients affected by hypokalemias; settings: guanidine 25 mg/day or more, acetamide 100 and 500 mg/day; cited from earlier work
[6] = animals that responded to treatment
[7] = animals that responded to treatment, same doses as E13

| reduction in average pressure [4] [%] | Molecule | effect on muscular weakness and muscular invalidity (animal models) | values of K^+ 30 minutes after the end of the effort (venous plasma K^+ [1]) [mEq/l] | levels of venous K^+ after 100 minutes (venous plasma K^+ [1]; after the end of the effort) [mEq/l] | values of K^+ after 60 minutes (venous plasma K^+ [1]; after the end of the effort) [mEq/l] | K^+ levels of the animals that did not respond to the treatment (venous plasma K^+ [2]) | average rate increase (heart rate) [3] [%] | average duration of the effort on the treadmill (Wistar Kioto male rats) | effort lasting (duration of the repeated effort on a treadmill) (Wistar Kioto male rats) [min] | rats able to sustain the effort on a treadmill already 30 minutes after suspending their exercise (Wistar Kioto male rats) | time after which the remaining rats were able to repeat the effort (Wistar Kioto male rats) [min] | rats that responded to the treatment in terms of both functional and blood parameters (Wistar Kioto male rats; low dose: complex 1 180 µg/kg/day, noncomplexed 20 µg/kg/day) | Average recovery times after effort (Wistar Kioto male rats) | effect on muscular weakness, paralysis attacks and symptoms [5] | K^+ values 30 minutes after the end of the administration (venous plasma K^+ [1]; [6]) [mEq/l] | K^+ values after 60 minutes (venous plasma K^+ [1]; [7]) [mEq/l] | levels of venous K^+ after 100 minutes (venous plasma K^+ [1]; [7]) [mEq/l] | levels of K^+ of the animals that did not respond to treatment (venous plasma K^+ [1]; same doses as E13) |
| --- | --- | --- | --- | --- | --- | --- | --- | --- | --- | --- | --- | --- | --- | --- | --- | --- | --- | --- |
| 8 | Nc1cc(N2CCCCC2)nc(N)[n+]1[O-] [6-[1-piperidinyl]pyrimidine-2,4-diamine-3-oxide] | capable of preventing muscular weakness and muscular invalidity | 5.2±2 | 4.5±1 | 4.2±1 | lower than 3 mEq/l | 10±2 | significantly longer | 7.2 ± 1 | 6 rats out of 8 | 90 | 3 rats out of 8 | reduced significantly | – | – | – | – | – |
| 15 | CC(=O)Nc1nnc(S(N)(=O)=O)s1 [N-[5-sulfamoyl-1,3,4-thiadiazol-2-yl]acetamide] | – | – | – | – | – | 9±2 | significantly longer | 7 ± 2 | 4 rats out of 8 | 80 | – | reduced significantly | useful in reducing symptoms and muscular invalidity caused by exercise | 6.2±2 | 5.8±1 | 5.6±1 | below 3 mEq/l |
| 13 | [±]-N-cyano-N-4-pyridinyl-N-[1,2,2-trimethylpropyl]-guanidine | – | – | – | – | – | 14±2 | significantly longer | 7.4 ± 1 | 5 rats out of 8 | 70 | – | reduced significantly | capable of reducing muscular weakness and the frequency of paralysis attacks | 5.2±2 | 4.8±1 | 4.6±1 | below 3 mEq/l |
